In brackets after ≈: the same amount, converted by molar mass. Peptide text beside a SMILES is read from it.
Experiment: physchem
Description: The segments were synthesized at a cGMP facility using standard techniques for amino acid synthesis.

CC[C@H](C)[C@H](NC(=O)[C@@H]1CCCN1C(=O)[C@H](C)NC(=O)CNC(=O)[C@@H]1CCCN1C(=O)[C@H](CCC(N)=O)NC(=O)[C@H](CO)NC(=O)[C@H](Cc1ccccc1)NC(=O)[C@H](Cc1ccccc1)NC(=O)[C@@H]1CCCN1C(=O)[C@H](CC(N)=O)NC(=O)[C@H](CCC(=O)O)NC(=O)[C@H](CCC(N)=O)NC(=O)[C@H](CC(C)C)NC(=O)[C@@H](NC(=O)[C@H](CS)NC(=O)[C@H](CCC(=O)O)NC(=O)[C@@H]1CCCN1C(=O)[C@H](CS)NC(=O)[C@H](CC(=O)O)NC(=O)[C@H](CCC(N)=O)NC(=O)[C@@H](NC(=O)[C@H](CC(=O)O)NC(=O)[C@@H]1CCCN1C(=O)[C@H](C)N)C(C)C)[C@@H](C)O)C(=O)O [first amino acid segment] (H-APDVQDCPECTLQENPFFSQPGAPI-OH)
solubility: 1000 µg/mL (≈ 370 µM)
